Reference: the NIST ThermoML archive (doi:10.1021/je700015t)
± gives the expanded uncertainty stated by the source.

Conditions: 101.33 kPa, Liquid

Compound	mass density (253.15 K)	mass density (263.15 K)	mass density (273.15 K)	mass density (283.15 K)	mass density (298.15 K)	mass density (323.15 K)	mass density (293.15 K)	mass density (343.15 K)	mass density (363.15 K)	mass density (393.15 K)	mass density (423.15 K)	mass density (243.15 K)	mass density (383.15 K)	mass density (403.15 K)
CCCCBr [1-bromobutane]	1326.5 ± 1.7 kg/m3	1313.8 ± 1.6 kg/m3	1300.5 ± 1.5 kg/m3	1286.4 ± 1.4 kg/m3	1265.7 ± 1.3 kg/m3	1229.5 ± 1.5 kg/m3								
CCCCCCCCCCCCBr [1-bromododecane]			1056.5 ± 1.3 kg/m3	1048.5 ± 1.2 kg/m3	1035.6 ± 1.2 kg/m3	1014 ± 1.4 kg/m3	1039.8 ± 1.1 kg/m3	996.2 ± 1.5 kg/m3	979 ± 1.7 kg/m3	952.4 ± 1.9 kg/m3	923.7 ± 2.2 kg/m3			
CCCCCCCBr [1-bromoheptane]		1169.6 ± 1.6 kg/m3	1159.2 ± 1.4 kg/m3	1148.7 ± 1.3 kg/m3	1132.9 ± 1.3 kg/m3	1106 ± 1.5 kg/m3		1084.5 ± 1.6 kg/m3		1026.6 ± 2 kg/m3		1191 ± 1.8 kg/m3		
CCCCCCBr [1-bromohexane]	1218 ± 1.7 kg/m3		1195.3 ± 1.5 kg/m3	1183.8 ± 1.3 kg/m3	1166.8 ± 1.3 kg/m3	1137.3 ± 1.5 kg/m3		1113.7 ± 1.6 kg/m3	1090.8 ± 1.8 kg/m3				1066.1 ± 1.9 kg/m3	1040.9 ± 2.1 kg/m3
CCCCCCCCBr [1-bromooctane]	1151.1 ± 1.7 kg/m3	1140.9 ± 1.5 kg/m3	1131.2 ± 1.4 kg/m3	1121.2 ± 1.3 kg/m3	1106 ± 1.3 kg/m3	1080.6 ± 1.5 kg/m3	1111 ± 1.2 kg/m3	1060.5 ± 1.6 kg/m3	1039.5 ± 1.8 kg/m3	1008.4 ± 2 kg/m3				
CCCCCBr [1-bromopentane]	1260.3 ± 2 kg/m3	1249.9 ± 1.9 kg/m3	1239.6 ± 1.8 kg/m3		1208.5 ± 1.6 kg/m3	1177.1 ± 1.8 kg/m3	1214.9 ± 1.6 kg/m3	1151 ± 1.9 kg/m3	1124.7 ± 2 kg/m3	1083.4 ± 2.2 kg/m3			1097.4 ± 2.2 kg/m3	
CCCBr [1-bromopropane]	1415.4 ± 1.8 kg/m3	1400.3 ± 1.7 kg/m3	1385.3 ± 1.6 kg/m3	1369.4 ± 1.5 kg/m3	1344.5 ± 1.4 kg/m3							1431.1 ± 1.9 kg/m3		
